Holding throughout (assay): NCI-60 cell line screen, 48 h
The subject of test [1] is EKVX NSCLC.
In test [2] the test system is UACC-62 melanoma.
Test [3] concerns TK-10 renal.
Test [4] relates to COLO 205 colon.
Test [5] has as its system K-562 leukemia.
Test [6] relates to 786-0 renal.
Test [7] deals with HOP-62 NSCLC.
Test [8] deals with NCI-H23 lung.
Test [9] relates to MDA-MB-231 breast.
In test [10] the test system is PC-3 prostate.

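Five compound concentrations were applied to cells in 96-well plates for 48 hours; endpoints were derived by simple linear interpolation of the resulting dose-response curve. Abbreviation: GI50, concentration required for 50% inhibition of growth. TGI: total growth inhibition.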

On to `Cc1cc(NCCCCCCCCNc2cc(C)nc3cc(N)ccc23)c2ccc(N)cc2n1`, for which the TGI is 61 µM in test [1]; 38.4 µM in test [2]; > 100 µM in test [3]; 31.2 µM in test [4]; 16.3 µM in test [5]; 53.7 µM in test [6]. For the same compound, the TGI in test [7] is 75.1 µM; in [8], 52.8 µM.

Turning to `N#CCCN(c1ccc(C=Nc2ccccc2)cc1)S(=O)(=O)c1ccccc1`, the TGI in test [1], in test [2], in [3], in test [4], in [5] and in test [6] was > 100 µM in each case. Also, the TGI in [7] and in [8] was > 100 µM in each case.

Turning to `Cc1nc(-n2nc(-c3ccccc3)cc2-c2ccccc2)sc1C(=O)/C=C/c1ccc(/C=C/C(=O)c2sc(-n3nc(-c4ccccc4)cc3-c3ccccc3)nc2C)cc1`, the TGI in test [1] was > 100 µM; in [3], 87.6 µM; in test [4], 39.1 µM; in [5] it was > 100 µM; in test [6] it was 33.4 µM; in test [7] it was 54.2 µM. For the same compound, in test [8], the TGI was 35.3 µM.

Turning to `C[C@@H](NC1CCCC[C@H]1O)c1ccccc1` (some centres undefined), the TGI in [1], in test [2], in [3], in test [4], in [5] and in [6] was > 100 µM each time. In addition, the TGI in test [7] and in [8] was > 100 µM throughout.

For `O=C(NCCCCCCCCCCCCNC(=O)c1cccc2ccccc12)c1cccc2ccccc12`, the TGI is > 100 µM in [1]; > 100 µM in test [2]; > 87.1 µM in test [3]; > 100 µM in test [4]; > 100 µM in [5]; > 71.7 µM in test [6]. Besides, the values for the TGI in test [7] and in test [8] were 30.4 µM and > 100 µM, respectively.

As to `COc1cc(/C=C\c2cc(OC)c(OC)c(OC)c2)cc(N/C=C\C(=O)c2ccc(OC(F)(F)F)cc2)c1OC`, the GI50 in test [2] was 6.86 µM; in test [3], 4.79 µM; in test [4], 2.98 µM; in [5], 2.93 µM; in test [6], 4.34 µM; in test [7], 7.85 µM. Besides, the GI50 in test [9] was 3 µM; in test [8], 4.38 µM. The TGI in test [2] is > 100 µM; in test [3], > 100 µM; in test [4], 9.37 µM; in test [5], > 100 µM; in test [6], > 100 µM; in [7] it was > 100 µM. In addition, the TGI in test [9] was 14.5 µM; in test [8], > 100 µM.

For `CN1c2ccccc2N(C(=O)c2ccc([N+](=O)[O-])cc2)C(CC(=O)O)c2cccn21` (centres undefined), the TGI in [1], in test [2], in test [3], in [4], in test [5] and in [6] was > 100 µM each time. In addition, the TGI in [7] and in [8] was > 100 µM in each case.

`Cn1cc(C(=O)c2ccccc2)c2ccccc2c1=O`: the TGI is > 100 µM in test [1]; > 100 µM in test [2]; > 100 µM in test [3]; > 100 µM in test [4]; > 100 µM in test [6]; 71.8 µM in test [7].

For `Nc1ncnc2c1ncn2[C@]1(CO)C=C(CO)C(O)C1O` (some centres undefined), the TGI in test [3], in test [4], in [6], in test [7] and in test [8] was > 100 µM in each case.

As to `Cc1cc(O)c(=O)cc2c1C[C@H]1CC(C)(C)/C=C/C[C@]3(C)Oc4cc(=O)c(O)cc(C)c4C[C@H]3C[C@H](O)[C@@]1(C)O2`, the GI50 in test [10] was < 0.01 µM; in test [1], 0.0172 µM; in test [2], 0.0296 µM; in test [3] it was 0.0211 µM; in [6] it was 0.0327 µM; in test [7] it was 0.02 µM. The GI50 in test [9] is 0.0322 µM; in test [8] it was < 0.01 µM. Moreover, the TGI in [10] is 23.5 µM; in test [1], > 46.2 µM; in [2], 0.157 µM; in test [3] it was 9.95 µM; in test [6], 15.4 µM; in test [7] it was 0.0987 µM. Further, the results for the TGI in [9] and in test [8] were 50.3 µM and 0.0345 µM, respectively.

Take `O=C(N/C(=C\c1ccc(Cl)cc1)c1nc2ccccc2[nH]1)c1ccccc1`: the TGI in test [1] is 58.1 µM; in [2], 32.3 µM; in test [3] it was 63.8 µM; in test [4] it was 35.6 µM; in test [5], 38.8 µM; in [6] it was 43.9 µM. This compound came in with a TGI in test [8] of 42.9 µM.

Turning to `COc1ccc(C/C(=N/O)C(=O)NCCc2cc(Br)c(OCCCN(C)C)c(Br)c2)cc1Br`, the TGI in test [1] stood at 43 µM; in [3] it was 59.8 µM; in test [4], 40.2 µM; in [6] it was 48.1 µM; in test [7] it was 30 µM.

As for `N#Cc1c(-c2ccc(Cl)c(Cl)c2)c(-c2ccc(Cl)c(Cl)c2)nn(CC(=O)O)c1=O`, the TGI in test [1], in test [2], in [3], in test [4], in test [5] and in [6] was > 100 µM each time. In addition, the TGI in [7] was > 100 µM.

On to `O=C(/C=C/c1cc(Cl)cc(Cl)c1O)c1cccc(O)c1`, for which the TGI in [1] is > 100 µM; in test [2], > 100 µM; in test [3], > 100 µM; in test [4], 32.7 µM; in [5] it was > 100 µM; in [6] it was > 100 µM. The TGI in [7] and in test [8] was > 100 µM throughout.

With `COC(=O)C(C(=O)C(=O)Nc1c(C)cccc1C)c1cnc2ccccc2n1` (centres undefined), the TGI in [1], in test [2], in test [3], in test [4], in [5] and in test [6] was > 100 µM each time. Also, the TGI in test [8] is > 100 µM.

Source of the values: PubChem BioAssay (NCI).
